Assay results from patent publication US11628169B2, “Therapeutic drug for motor complications in Parkinson's disease” (Sumitomo Pharma Co., Ltd., priority 2020, dated 2023).
Structures can show the parent of a compound that is named as a salt.

Tests used:
Type in all cases: in vivo
[1] = system: PD-LID rat model; assay: Dyskinesia-like symptom (AIMs) score in PD-LID rat model; details: for total dyskinesia-like symptom (AIMs) score in 3 hours: levodopa 5 min later, vs solvent group
Procedure: To make a PD-LID rat model, a mixture of levodopa methyl ester hydrochloride (6 mg/kg; Sigma-Aldrich) dissolved in saline and benserazide hydrochloride (15 mg/kg; Sigma-Aldrich) (hereinafter, also referred to as “levodopa containing solution”) was intraperitoneally administered once daily to 6-OHDA-lesioned rats. The levodopa containing solution was repeatedly administered for 3 weeks or longer to observe and evaluate the behavior. The behavior was observed and evaluated in a transparent acrylic cage for 1 minute every 20 minutes after 20 minutes from the intraperitoneal administration of the levodopa containing solution, up until after 3 hours from administration. […] The sum of the scores for Limb AIMs, Axial AIMs, and Orolingual AIMs in 3 hours was used as the total dyskinesia-like symptom (AIMs) score. Individuals with a total AIMs score of less than 10 were excluded from the test as not manifesting a dyskinesia-like symptom. The behavior was observed and evaluated before the drug evaluation date. The rats were assigned to each dosing group by using the 3 hour total dyskinesia-like symptom (AIMs) score, Locomotive behavior score, and rat body weight as indicators, which were used for evaluation of drugs. […]
After 4 hours from application, a levodopa containing solution was intraperitoneally administered to observe and evaluate the behavior. Individuals with 50% or more of the tape agent coming off during the test were excluded from analysis. […]
As in Example 2, a levodopa containing solution was repeated administered to 6-0HDA-lesioned rats for 3 weeks or longer to observe and evaluate the behavior. The behavior was observed and evaluated before the drug evaluation date. The rats were assigned to each dosing group by using the 3 hour dyskinesia-like symptom (AIMs) score, Locomotive behavior score, and rat body weight as indicators, which were used for evaluation of drugs. However, individuals with a total AIMs score of less than 10 were excluded from the test as lacking manifestation of a dyskinesia-like symptom. Individuals with a body weight deviating 10% or more from the mean body weight were also excluded from the test to minimize variation in the dosage for each individual. […]
After 4 hours, a levodopa containing solution was administered to observe and evaluate the behavior. […]
The prepared solution was used after injection into an ALZET® Osmotic Pump MODEL 2ML2 (4.53 μL/hour; DURECT) for releasing a drug solution at a stable rate for 2 weeks. […]
The behavior was observed and evaluated using the same method as Example 2. […] After 5 minutes, a levodopa containing solution was intraperitoneally administered, and the behavior was observed and evaluated. The results in the drawings are indicated in terms of mean value […] standard error. The test results were statistically analyzed by comparison with the solvent administration group by Steel test using the total dyskinesia-like symptom (AIMs) score in 3 hours and total dyskinesia-like symptom score in 100 to 180 minutes as parameters. * indicates p<0.05, meaning that there is a significant difference.
The behavior was observed and evaluated using the same method in Example 2. […] The test results were statistically analyzed by comparison with the solvent administration group by Steel test by using the total dyskinesia-like symptom (AIMs) score in 3 hours and total dyskinesia-like symptom score in 100 to 180 minutes as parameters.

[2] = system: PD-LID rat model; assay: as above
[3] = system: PD-LID rat model; assay: ON score and ON time without dyskinesia in PD-LID rat model
Procedure: To make a PD-LID rat model, a mixture of levodopa methyl ester hydrochloride (6 mg/kg; Sigma-Aldrich) dissolved in saline and benserazide hydrochloride (15 mg/kg; Sigma-Aldrich) (hereinafter, also referred to as “levodopa containing solution”) was intraperitoneally administered once daily to 6-OHDA-lesioned rats. The levodopa containing solution was repeatedly administered for 3 weeks or longer to observe and evaluate the behavior. The behavior was observed and evaluated in a transparent acrylic cage for 1 minute every 20 minutes after 20 minutes from the intraperitoneal administration of the levodopa containing solution, up until after 3 hours from administration. […] Individuals with a total AIMs score of less than 10 were excluded from the test as not manifesting a dyskinesia-like symptom. The behavior was observed and evaluated before the drug evaluation date. […] For an indicator of dyskinesia behavior, the sum of the Limb AIMs, Axial AIMs, and Orolingual AIMs at each evaluation point was used as the AIMs score. For the rotational behavior (ON score), Locomotive behavior at each evaluation point was used as an indicator. […] For ON time without dyskinesia, the period during which the AIMs score is 0 and Locomotive behavior is 1 or greater at each evaluation point was added. Duration of action of levodopa without a dyskinesia symptom (ON time without dyskinesia) refers to the aggregate time with no dyskinesia during the antiparkinsonian action effective time, i.e., “ON-time”, and defined as the time during which the dyskinesia symptom (AIMs) score is 0 and the rotational behavior (Locomotive behavior) score is 1 or greater at each evaluation point after levodopa administration. […] After 5 minutes, a levodopa containing solution was intraperitoneally administered, and the behavior was observed and evaluated. The results in the drawings are indicated in terms of mean value±standard error. […] For evaluation of a tape agent, the abdominal regions of the rats were shaved prior to the evaluation date. […] After 4 hours from application, a levodopa containing solution was intraperitoneally administered to observe and evaluation the behavior. The results in the drawings are indicated in terms of mean value±standard error. Individuals with 50% or more of the tape agent coming off during the test were excluded from analysis.

[4] = system: rat Vogel conflict test model; assay: Anxiolytic action in rat Vogel conflict test model; details: effect on PD-LID evaluated in 6-OHDA-lesioned rats
Procedure: The anxiolytic action was evaluated using a rat Vogel conflict test model, and the effect on PD-LID was evaluated in 6-0HDA-lesioned rats.

[5] = continuous subcutaneous infusion 1.25 mg/kg/hour, vs solvent
[6] = oral 6.7 mg/kg as free form (10 mg/kg as citrate)
[7] = oral 67 mg/kg as free form (100 mg/kg as citrate)
[8] = transdermal condition 1, 37 mg/kg as free form
[9] = transdermal condition 2 (stripping), 45 mg/kg as free form

c1cnc(N2CCNCC2)nc1 [1-PP dihydrochloride, 1-(2-Pyrimidyl)piperazine]
total dyskinesia-like symptom (AIMs) score in 3 hours ([1]; subcutaneous 10 mg/kg): significant change in the total AIMs score was not found | total dyskinesia-like symptom (AIMs) score in 3 hours ([1]; subcutaneous 30 mg/kg): significant change in the total AIMs score was not found | total dyskinesia-like symptom score in 100 to 180 minutes ([2]; subcutaneous 10 or 30 mg/kg, vs solvent group): increasing trend in the total AIMs score, albeit not significant

O=C1[C@@H]2[C@H]3CC[C@H](C3)[C@@H]2C(=O)N1CCCCN1CCN(c2ncccn2)CC1 [tandospirone, (1R,2S,3R,4S)—N-[4-{4-(pyrimidine-2-yl)piperadine-1-yl}butyl]-2,3-bicyclo[2.2.1]heptanedicarboximide]
(iii) Duration of action of levodopa without dyskinesia symptom (ON time without dyskinesia) ([3]; oral 6.7 mg/kg as free form (10 mg/kg as citrate), vs solvent group): Ineffective | (iii) Duration of action of levodopa without dyskinesia symptom (ON time without dyskinesia) ([3]; oral 20 mg/kg as free form (30 mg/kg as citrate), vs solvent group): Ineffective | (iii) Duration of action of levodopa without dyskinesia symptom (ON time without dyskinesia) ([3]; transdermal condition 1 (no stripping), 37 mg/kg as free form, 180 min, prolongation vs placebo tape): 21.7 min | (iii) Duration of action of levodopa without dyskinesia symptom (ON time without dyskinesia) ([3]; transdermal condition 2 (stripping), 45 mg/kg as free form, 180 min, prolongation vs placebo tape): 77.8 min | total dyskinesia-like symptom score in 100 to 180 minutes [1, 5]: significant improvement | dyskinesia-like symptoms (total AIMs score in 3 hours) ([1]; continuous subcutaneous infusion 0.05, 0.25, 1.25 mg/kg/hour, levodopa 4 hours after pump implant, vs solvent): dose-dependently improved dyskinesia-like symptoms | anxiolytic action compared with effect on PD-LID [4]: exerted at the same dosage | dyskinesia-like symptoms (total AIMs score in 3 hours) [2, 5]: significant improvement | (i) Degree of improvement in indicator of dyskinesia symptom (total AIMs score in 3 hours, solvent minus tandospirone group) [2, 6]: Ineffective | (ii) Indicator of rebound symptom of dyskinesia (total dyskinesia-like symptom score in 100 to 180 minutes, solvent minus tandospirone group) [2, 6]: No effect | (i) Degree of improvement in indicator of dyskinesia symptom (total AIMs score in 3 hours, solvent minus tandospirone group) ([2]; oral 20 mg/kg as free form (30 mg/kg as citrate)): Ineffective | (ii) Indicator of rebound symptom of dyskinesia (total dyskinesia-like symptom score in 100 to 180 minutes, solvent minus tandospirone group) ([2]; oral 20 mg/kg as free form (30 mg/kg as citrate), experiment printed as (FIG. 7)): −9.1 | (ii) Indicator of rebound symptom of dyskinesia (total dyskinesia-like symptom score in 100 to 180 minutes, solvent minus tandospirone group) ([2]; oral 20 mg/kg as free form (30 mg/kg as citrate), experiment printed as (FIGS. 8A-8B)): −8.5 | (i) Degree of improvement in indicator of dyskinesia symptom (total AIMs score in 3 hours, solvent minus tandospirone group) [2, 7]: Ineffective | (ii) Indicator of rebound symptom of dyskinesia (total dyskinesia-like symptom score in 100 to 180 minutes, solvent minus tandospirone group) [2, 7]: −10.1 | (i) Degree of improvement in indicator of dyskinesia symptom (total AIMs score in 3 hours, placebo minus tandospirone group) [2, 8]: 17.7 | (ii) Indicator of rebound symptom of dyskinesia (total dyskinesia-like symptom score in 100 to 180 minutes, placebo minus tandospirone group) [2, 8]: No effect | (i) Degree of improvement in indicator of dyskinesia symptom (total AIMs score in 3 hours, placebo minus tandospirone group) [2, 9]: 27.1 | (ii) Indicator of rebound symptom of dyskinesia (total dyskinesia-like symptom score in 100 to 180 minutes, placebo minus tandospirone group) [2, 9]: No effect
